Earlier results in US7947297B2, “Mixtures of phenolic and inorganic materials with antimicrobial activity” (BASF SE, priority 2000, dated 2011).

Settings: polypropylene samples, Xenon Arc Weather-Ometer at 035 W/m^2, 63° C.

## Oc1cc(Cl)ccc1Oc1ccc(Cl)cc1Cl [Irgaguard ® B1000, 2,4,4′-trichloro-2′-hydroxydiphenyl ether]
  discoloration upon weathering: discolor within hours
